# Measured values from ChEMBL document CHEMBL1201862, “PubChem BioAssay data set” (2004).
#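 Protocol summary: plate cells (96-well), add compound at 5 concentrations, incubate 48 h, interpolate endpoints linearly. Abbreviation: GI50, concentration required for 50% inhibition of growth.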 Active and inactive are the calls of the source. Rule as the data show it: active = GI50 up to about 1.1 µM and inactive = higher.
# Tests used:
# Assay in all cases: NCI-60 cell line screen, 48 h
# [1] = tested on: SF-539
# [2] = tested on: UACC-257
# [3] = tested on: SF-268
# [4] = tested on: IGROV-1
# [5] = tested on: MCF7
# [6] = tested on: T47D
# [7] = tested on: PC-3
# [8] = tested on: 786-0
# [9] = tested on: M14
# [10] = tested on: KM12
# [11] = tested on: NCI-H522
# [12] = tested on: ACHN
# [13] = tested on: CCRF-CEM
# [14] = tested on: NCI/ADR-RES
# [15] = tested on: SW-620
# [16] = tested on: UO-31
# [17] = tested on: DU-145
# [18] = tested on: CAKI-1
# [19] = tested on: HT-29
# [20] = tested on: MDA-MB-231
# [21] = tested on: EKVX
# [22] = tested on: HCC 2998
# [23] = tested on: HCT-116
# [24] = tested on: UACC-62
# [25] = tested on: NCI-H23
# [26] = tested on: SK-MEL-5
# [27] = tested on: MDA-N
# [28] = tested on: OVCAR-8
# [29] = tested on: HOP-92
# [30] = tested on: NCI-H460
# [31] = tested on: SK-MEL-28
# [32] = tested on: HOP-62
# [33] = tested on: LOX IMVI
# [34] = tested on: Hs-578T
# [35] = tested on: SF-295
# [36] = tested on: OVCAR-3
# [37] = tested on: U-251
# [38] = tested on: RPMI-8226
# [39] = tested on: HCT-15
# [40] = tested on: SN12C
# [41] = tested on: Malme-3M
# [42] = tested on: SK-MEL-2
# [43] = tested on: COLO 205
# [44] = tested on: MDA-MB-435
# [45] = tested on: SNB-19
# [46] = tested on: RXF 393
# [47] = tested on: BT-549
# [48] = tested on: TK-10
# [49] = tested on: A549
# [50] = tested on: NCI-H226
# [51] = tested on: K562
# [52] = tested on: SK-OV-3
# [53] = tested on: SNB-75
# [54] = tested on: HL-60
# [55] = tested on: OVCAR-4
# [56] = tested on: SR
# [57] = tested on: A498
# [58] = tested on: OVCAR-5
# [59] = tested on: MOLT-4
smiles,measurement,setting,value
c1ccc(C(C2=Nc3cccc4cccc(c34)N2)c2ccccc2)cc1,GI50,[1],17.2 µM (inactive)
same,GI50,[2],24.5 µM (inactive)
same,GI50,[3],24.4 µM (inactive)
same,GI50,[4],33.9 µM (inactive)
same,GI50,[5],31.8 µM (inactive)
same,GI50,[6],13.3 µM (inactive)
same,GI50,[7],23 µM (inactive)
same,GI50,[8],26.2 µM (inactive)
same,GI50,[9],18.1 µM (inactive)
same,GI50,[10],20.6 µM (inactive)
same,GI50,[11],16.6 µM (inactive)
same,GI50,[12],19.3 µM (inactive)
same,GI50,[13],39.2 µM (inactive)
same,GI50,[14],21.2 µM (inactive)
same,GI50,[15],47.3 µM (inactive)
same,GI50,[16],17.8 µM (inactive)
same,GI50,[17],32.2 µM (inactive)
same,GI50,[18],22.6 µM (inactive)
same,GI50,[19],23.2 µM (inactive)
same,GI50,[20],30.8 µM (inactive)
same,GI50,[21],30.3 µM (inactive)
same,GI50,[22],20.6 µM (inactive)
same,GI50,[23],> 10 µM (inactive)
same,GI50,[24],17.5 µM (inactive)
same,GI50,[25],28.1 µM (inactive)
same,GI50,[26],20.5 µM (inactive)
same,GI50,[27],23.4 µM (inactive)
same,GI50,[28],30.7 µM (inactive)
same,GI50,[29],18.7 µM (inactive)
same,GI50,[30],24.7 µM (inactive)
same,GI50,[31],23.6 µM (inactive)
same,GI50,[32],23.1 µM (inactive)
same,GI50,[33],18.7 µM (inactive)
same,GI50,[34],27 µM (inactive)
same,GI50,[35],21.1 µM (inactive)
same,GI50,[36],20.3 µM (inactive)
same,GI50,[37],18 µM (inactive)
same,GI50,[38],21.6 µM (inactive)
same,GI50,[39],25.1 µM
same,GI50,[40],14.8 µM (inactive)
same,GI50,[41],27.8 µM (inactive)
same,GI50,[42],20.9 µM (inactive)
same,GI50,[43],18.9 µM (inactive)
same,GI50,[44],25.5 µM (inactive)
same,GI50,[45],37.8 µM (inactive)
same,GI50,[46],27.3 µM (inactive)
same,GI50,[47],22 µM (inactive)
same,GI50,[48],47.9 µM (inactive)
same,GI50,[49],37.2 µM (inactive)
same,GI50,[50],31.6 µM (inactive)
same,GI50,[51],19 µM (inactive)
same,GI50,[52],21.5 µM (inactive)
same,GI50,[53],22.3 µM (inactive)
same,GI50,[54],31.7 µM (inactive)
same,GI50,[55],53.5 µM (inactive)
COc1ccc2[nH]c3c(C)c4ccnc(NCCCN(C)CCCNc5ccc6nnn7c8ccccc8c(=O)c5c67)c4c(C)c3c2c1,GI50,[1],0.237 µM (active)
same,GI50,[2],1.43 µM (inactive)
same,GI50,[56],0.335 µM (active)
same,GI50,[3],0.679 µM (active)
same,GI50,[4],0.308 µM (active)
same,GI50,[5],0.0561 µM (active)
same,GI50,[6],1.81 µM (inactive)
same,GI50,[7],0.597 µM (active)
same,GI50,[8],0.237 µM (active)
same,GI50,[9],0.938 µM (active)
same,GI50,[10],0.432 µM (active)
same,GI50,[11],0.107 µM (active)
same,GI50,[12],0.0773 µM (active)
same,GI50,[13],0.0047 µM (active)
same,GI50,[14],0.982 µM (active)
same,GI50,[15],0.013 µM (active)
same,GI50,[16],0.603 µM (active)
same,GI50,[18],1.03 µM (active)
same,GI50,[19],0.0266 µM (active)
same,GI50,[20],0.181 µM (active)
same,GI50,[21],1.01 µM (active)
same,GI50,[22],0.209 µM (active)
same,GI50,[23],0.0217 µM (active)
same,GI50,[24],> 10 µM (inactive)
same,GI50,[25],0.745 µM (active)
same,GI50,[27],0.583 µM (active)
same,GI50,[28],0.297 µM (active)
same,GI50,[57],1.35 µM (inactive)
same,GI50,[30],0.0399 µM (active)
same,GI50,[31],1.75 µM (inactive)
same,GI50,[32],0.714 µM (active)
same,GI50,[33],0.228 µM (active)
same,GI50,[34],1.38 µM (inactive)
same,GI50,[35],0.14 µM (active)
same,GI50,[36],1.17 µM (inactive)
same,GI50,[37],0.223 µM (active)
same,GI50,[38],0.0474 µM (active)
same,GI50,[39],0.114 µM
same,GI50,[40],0.242 µM (active)
same,GI50,[42],> 10 µM (inactive)
same,GI50,[43],0.367 µM (active)
same,GI50,[44],0.362 µM (active)
same,GI50,[45],0.711 µM (active)
same,GI50,[46],1.03 µM (active)
same,GI50,[47],1.83 µM (inactive)
same,GI50,[48],1.07 µM (active)
same,GI50,[58],1.24 µM (inactive)
same,GI50,[49],0.0395 µM (active)
same,GI50,[50],> 10 µM (inactive)
same,GI50,[51],0.226 µM (active)
same,GI50,[52],2.64 µM (inactive)
same,GI50,[53],1.01 µM (active)
same,GI50,[54],0.135 µM (active)
same,GI50,[59],0.00104 µM (active)
same,GI50,[55],1.02 µM (active)
